Legend:
[1] = tested on: H-146; assay: MTS cell viability assay, H-146; type: cell-based
Protocol: (§1) Cells were plated, the evening before treatment, for each treatment on 96-well plates (1×10^4 cells/well) in 100 μL volume per well. Analog solutions were prepared by diluting each test compound in DSMO (10 mM) with the appropriate cell growth media for each individual cell line, or in “Universal Media” if several cell lines were to be assayed in parallel, immediately prior to cell treatment. Universal Media consisted of 5 mL sodium pyruvate (100× liquid stock, MediaTech), 5 mL glucose (100×, 45% liquid stock, MediaTech), 5 mL Penicillin/Streptomycin (100× liquid stock, MediaTech), 10 mL sodium bicarbonate (50× liquid stock, MediaTech), 25 mL Fetal Calf Serum, 1.25 mL insulin (4 mg/mL, Gibco) and […] RPMI media with 2 mM L-glutamine for a total volume of 500 mL.
(§2) Cells were treated by aspirating plating media from each well and adding 80 μL of betulinic acid (control) or each analog solution in serial dilutions to the adherent cells. All treatments were performed in triplicate. Growth media (80 μL) was added to 3 blank wells (no cells) to measure background from the growth media. Growth media alone (no DMSO or test compound) was added to 3 wells containing cells to measure the baseline MTS activity. Vehicle (DMSO) control in serial dilutions, added to cells, was also included to monitor basal toxicity from DMSO. Cells were incubated at 37° C. for 72 h, or 120 h for the OVCAR cell lines. MTS reagent (per 96-well plate) were prepared by combining 2 mL of MTS working solution (Cell Titer AQueous Non-Radioactive Cell Proliferation Assay, Promega, cat#G1112), 100 μL of 0.92 mg/mL phenazine methosulfate/Dulbecco's PBS and 2.1 mL growth media. MTS reagent (40 μL) were added to each well and incubated at 37° C. for 1.5 to 4 h. Plates were gently shaken by hand until solution in each well appeared homogenous. Absorbances at 490 nm were measured on a Wallac Victor II plate reader at multiple time points following the addition of MTS reagent for each plate. Triplicate absorbance (490 nm) measurements were averaged following background (no cell) subtraction for each drug concentration. Percent Cell Viability was calculated for each drug concentration using the following equation:
(§3) {[Absorbance(analog treated)]/[Absorbance(DMSO treated)]}×100%

[2] = tested on: A-375 (melanoma); assay: MTS cell viability assay, A-375; type: cell-based
Protocol: as §1, §2, §3
(§4) Cytotoxicity dose response for the triterpenoid derivatives synthesized in SK-MEL-2 (melanoma), A-375 (melanoma), Daoy (glioblastoma), LN-229 (glioblastoma), OVCAR-3 (ovarian carcinoma), HT-29 (colon carcinoma), MCF-7 (breast carcinoma) cell lines using the standard MTS assay is summarized in Table 1. In Table 1, compounds 22a-d and compounds 23a-c refer to structures 22 and 23 in Scheme 5, respectively. Compounds 24aa-an and 24ba-bq refer to structure 24 in Scheme 6. Compounds 26a-e refer to structure 26 in Scheme 6. Compounds 36a-c refer to structure 36 in Scheme 10.

[3] = tested on: OVCAR-3 (ovarian carcinoma); assay: MTS cell viability assay, OVCAR-3; type: cell-based
Protocol: as §1, §2, §3, §4

[4] = tested on: SK-MEL-2 (melanoma); assay: MTS cell viability assay, SK-MEL-2; type: cell-based
Protocol: as §1, §2, §3, §4

[5] = tested on: Daoy; assay: MTS cell viability assay, Daoy; type: cell-based; conditions: cells incubated 72 h
Protocol: as §1, §2, §3, §4

[6] = tested on: HT-29 (colon carcinoma); assay: MTS cell viability assay, HT-29; type: cell-based
Protocol: as §1, §2, §3, §4

[7] = tested on: LN-229 (glioblastoma); assay: MTS cell viability assay, LN-229; type: cell-based
Protocol: as §1, §2, §3, §4

[8] = tested on: CEM; assay: MTS cell viability assay, CEM; type: cell-based; conditions: cells incubated 72 h
Protocol: as §1, §2, §3

[9] = tested on: MCF-7 (breast carcinoma); assay: MTS cell viability assay, MCF-7; type: cell-based
Protocol: as §1, §2, §3, §4

[10] = Homo sapiens, NCI-H146, cells incubated 72 h
[11] = Homo sapiens, A-375, cells incubated 72 h
[12] = Homo sapiens, OVCAR-3, 120 h for the OVCAR cell lines
[13] = Homo sapiens, SK-MEL-2, cells incubated 72 h
[14] = Homo sapiens, HT-29, cells incubated 72 h
[15] = Homo sapiens, LN-229, cells incubated 72 h
[16] = Homo sapiens, MCF7, cells incubated 72 h

Structure (SMILES) | IC50 ([1]; cells incubated 72 h) | IC50 ([2]; cells incubated 72 h) | IC50 ([3]; 120 h for the OVCAR cell lines) | IC50 ([4]; cells incubated 72 h) | IC50 [5] | IC50 ([6]; cells incubated 72 h) | IC50 ([7]; cells incubated 72 h) | IC50 [8] | IC50 ([9]; cells incubated 72 h) | IC50 [1, 10] | IC50 [2, 11] | IC50 [3, 12] | IC50 [4, 13] | IC50 ([5]; Homo sapiens, Daoy) | IC50 [6, 14] | IC50 [7, 15] | IC50 ([8]; Homo sapiens, CCRF-CEM) | IC50 [9, 16] | melting point
C=C(C)[C@@H]1CC[C@]2(C(=O)O)CC[C@]3(C)[C@H](CC[C@@H]4[C@@]5(C)CC[C@H](O)C(C)(C)[C@@H]5CC[C@]43C)[C@@H]12 [Compound 1, betulinic acid (3β-hydroxy-lup-20(29)-en-28-oic acid), reference compound] | 8 µM | 22 µM | 40 µM | 7 µM | 11 µM | 31 µM | 29 µM | 2 µM | 30 µM | – | – | – | – | – | – | – | – | – | –
C=C(CO)[C@@H]1CC[C@]2(CO)CC[C@]3(C)[C@H](CC[C@@H]4[C@@]5(C)CCC(=O)C(C)(C)[C@@H]5CC[C@]43C)[C@@H]12 [Compound 7a] | – | – | – | – | – | – | – | – | – | 60 µM | 40 µM | 43 µM | > 75 µM | > 75 µM | 44 µM | > 75 µM | 45 µM | 43 µM | –
C=C(CO)[C@@H]1CC[C@]2(CO)CC[C@]3(C)[C@H](CC[C@@H]4[C@@]5(C)CCC(N)C(C)(C)[C@@H]5CC[C@]43C)[C@@H]12 (some centres unmarked) [Compound 24ab] | – | – | – | – | – | – | – | – | – | – | 6 µM | 14 µM | 34 µM | 31 µM | 17 µM | 17 µM | – | 15 µM | 189 to 199 °C
C=C(CO)[C@@H]1CC[C@]2(COC3CCCCO3)CC[C@]3(C)[C@H](CC[C@@H]4[C@@]5(C)CCC(NCCO)C(C)(C)[C@@H]5CC[C@]43C)[C@@H]12 (some centres unmarked) [Compound 24ac] | – | – | – | – | – | – | – | – | – | – | 13 µM | 7 µM | 15 µM | 15 µM | 60 µM | 11 µM | – | 36 µM | –
C=C(CO)[C@@H]1CC[C@]2(CO)CC[C@]3(C)[C@H](CC[C@@H]4[C@@]5(C)CCC(NCCO)C(C)(C)[C@@H]5CC[C@]43C)[C@@H]12 (some centres unmarked) [Compound 24ad] | – | – | – | – | – | – | – | – | – | – | 16 µM | 39 µM | 34 µM | 29 µM | 65 µM | 37 µM | – | 41 µM | –
C=C(CO)[C@@H]1CC[C@]2(COC3CCCCO3)CC[C@]3(C)[C@H](CC[C@@H]4[C@@]5(C)CCC(NCCOC)C(C)(C)[C@@H]5CC[C@]43C)[C@@H]12 (some centres unmarked) [Compound 24ae] | – | – | – | – | – | – | – | – | – | – | 6 µM | 17 µM | 34 µM | 28 µM | 19 µM | 17 µM | – | 16 µM | –
C=C(CO)[C@@H]1CC[C@]2(CO)CC[C@]3(C)[C@H](CC[C@@H]4[C@@]5(C)CCC(NCCOC)C(C)(C)[C@@H]5CC[C@]43C)[C@@H]12 (some centres unmarked) [Compound 24af] | – | 18 µM | 40 µM | 38 µM | 34 µM | 47 µM | 38 µM | – | 40 µM | – | – | – | – | – | – | – | – | – | –
C=C(CO)[C@@H]1CC[C@]2(CO)CC[C@]3(C)[C@H](CC[C@@H]4[C@@]5(C)CCC(NCCc6ccc(O)cc6)C(C)(C)[C@@H]5CC[C@]43C)[C@@H]12 (some centres unmarked) [Compound 24ag] | – | 17 µM | 5 µM | 12 µM | 16 µM | 26 µM | 17 µM | – | 28 µM | – | – | – | – | – | – | – | – | – | –
C=C(CO)[C@@H]1CC[C@]2(COC3CCCCO3)CC[C@]3(C)[C@H](CC[C@@H]4[C@@]5(C)CCC(NCCc6ccc(O)c(O)c6)C(C)(C)[C@@H]5CC[C@]43C)[C@@H]12 (some centres unmarked) [Compound 24ai] | – | – | – | – | – | – | – | – | – | – | 14 µM | 4 µM | 5 µM | 6 µM | 26 µM | 16 µM | – | 16 µM | –
C=C(CO)[C@@H]1CC[C@]2(CO)CC[C@]3(C)[C@H](CC[C@@H]4[C@@]5(C)CCC(NCCc6ccc(O)c(O)c6)C(C)(C)[C@@H]5CC[C@]43C)[C@@H]12 (some centres unmarked) [Compound 24aj] | – | – | – | – | – | – | – | – | – | – | 6 µM | 18 µM | 24 µM | 34 µM | 37 µM | 17 µM | – | 31 µM | –
C=C(CO)[C@@H]1CC[C@]2(CO)CC[C@]3(C)[C@H](CC[C@@H]4[C@@]5(C)CCC(NCCNC(=O)OC(C)(C)C)C(C)(C)[C@@H]5CC[C@]43C)[C@@H]12 (some centres unmarked) [Compound 24am] | – | 17 µM | 2.5 µM | 16 µM | 16 µM | > 75 µM | 17 µM | – | 35 µM | – | – | – | – | – | – | – | – | – | –
C=C(CO)[C@@H]1CC[C@]2(CO)CC[C@]3(C)[C@H](CC[C@@H]4[C@@]5(C)C=CC(=O)C(C)(C)[C@@H]5CC[C@]43C)[C@@H]12 [Compound 30] | – | – | – | – | – | – | – | – | – | 66 µM | 61 µM | > 75 µM | > 75 µM | > 75 µM | 67 µM | 68 µM | 16 µM | > 75 µM | –
C=C(C)[C@@H]1CC[C@]2(COC3CCCCO3)CC[C@]3(C)[C@H](CC[C@@H]4[C@@]5(C)C=C(C=O)C(=O)C(C)(C)[C@@H]5CC[C@]43C)[C@@H]12 (some centres unmarked) [Compound 32] | – | – | – | – | – | – | – | – | – | – | 6 µM | 6 µM | < 2 µM | < 2 µM | 6 µM | 2 µM | – | 6 µM | –
C=C(C=O)[C@@H]1CC[C@]2(COC3CCCCO3)CC[C@]3(C)[C@H](CC[C@@H]4[C@@]5(C)C=CC(=O)C(C)(C)[C@@H]5CC[C@]43C)[C@@H]12 (some centres unmarked) [Compound 34] | – | – | – | – | – | – | – | – | – | 2 µM | 1 µM | 2 µM | 2 µM | 6 µM | 2 µM | 6 µM | 1 µM | 8 µM | –
C=C(C=O)[C@@H]1CC[C@]2(CO)CC[C@]3(C)[C@H](CC[C@@H]4[C@@]5(C)C=CC(=O)C(C)(C)[C@@H]5CC[C@]43C)[C@@H]12 [Compound 35] | – | – | – | – | – | – | – | – | – | 5 µM | 6 µM | 6 µM | 14 µM | 17 µM | 8 µM | 58 µM | 2 µM | 32 µM | –

Source: patent US20090062243A1, “Lupane-Type Triterpenoids Modified at 30-Position and Analogues Thereof” (ADVANCED LIFE SCIENCES, INC., priority 2007, published 2009)
